Assay results taken from the NIST ThermoML archive (doi:10.1016/j.fluid.2018.12.025).
Several values for one entry are separate records, joined by “and”; a condition that tells them apart may be missing. Identical values can stand only once. ± gives the expanded uncertainty stated by the source.

Conditions: 101.33 kPa, Liquid, transient hot wire

`CCCC[N+]1(C)CCCC1.O=S(=O)([N-]S(=O)(=O)C(F)(F)F)C(F)(F)F` gave a thermal conductivity (279.16 K) of 0.1159 ± 0.0037 W/m/K, a thermal conductivity (294.59 K) of 0.115 ± 0.0037 W/m/K and a thermal conductivity (306.65 K) of 0.1157 ± 0.0037 W/m/K. The thermal conductivity (334.78 K) was 0.114 ± 0.0037 W/m/K, the thermal conductivity (335.13 K) was 0.1143 ± 0.0037 W/m/K and the thermal conductivity (338.98 K) was 0.1136 ± 0.0037 W/m/K. For the same compound, the thermal conductivity (353.98 K) was 0.1153 ± 0.0037 W/m/K, the thermal conductivity (362.23 K) was 0.1135 ± 0.0037 W/m/K and the thermal conductivity (364.36 K) was 0.1142 ± 0.0037 W/m/K. It also gave a thermal conductivity (383.56 K) of 0.1134 ± 0.0037 W/m/K, a thermal conductivity (419.99 K) of 0.1126 ± 0.0036 W/m/K and a thermal conductivity (438.07 K) of 0.1123 ± 0.0036 W/m/K.
`CCC[N+]1(C)CCCC1.O=S(=O)([N-]S(=O)(=O)C(F)(F)F)C(F)(F)F` showed a thermal conductivity (279.07 K) of 0.118 ± 0.0038 W/m/K, a thermal conductivity (300.88 K) of 0.1176 ± 0.0038 W/m/K and a thermal conductivity (318.32 K) of 0.1174 ± 0.0038 W/m/K. The thermal conductivity (326.71 K) was 0.1167 ± 0.0038 W/m/K, the thermal conductivity (340.17 K) was 0.1178 ± 0.0038 W/m/K and the thermal conductivity (351.81 K) was 0.1166 ± 0.0038 W/m/K. It also gave a thermal conductivity (354.65 K) of 0.1172 ± 0.0038 W/m/K, a thermal conductivity (389.67 K) of 0.1162 ± 0.0038 W/m/K and a thermal conductivity (408.29 K) of 0.1142 ± 0.0037 W/m/K. The thermal conductivity (409.24 K) was 0.1156 ± 0.0037 W/m/K, the thermal conductivity (434.89 K) was 0.115 ± 0.0037 W/m/K and the thermal conductivity (435.53 K) was 0.1138 ± 0.0037 W/m/K.
In the case of `Cc1ccccc1` [toluene], the thermal conductivity (276.19 K) is reported as 0.1359 ± 0.0044 W/m/K, the thermal conductivity (278.42 K) is reported as 0.1339 ± 0.0043 W/m/K and the thermal conductivity (281.25 K) is reported as 0.1324 ± 0.0043 W/m/K and 0.1325 ± 0.0043 W/m/K. It also gave a thermal conductivity (302.05 K) of 0.129 ± 0.0042 W/m/K, a thermal conductivity (304.59 K) of 0.1268 ± 0.0041 W/m/K and a thermal conductivity (329.65 K) of 0.1235 ± 0.004 W/m/K. The thermal conductivity (331.24 K) was 0.1237 ± 0.004 W/m/K, the thermal conductivity (337.63 K) was 0.1242 ± 0.004 W/m/K and the thermal conductivity (339.65 K) was 0.122 ± 0.0039 W/m/K. The thermal conductivity (339.85 K) was 0.1226 ± 0.004 W/m/K, the thermal conductivity (340.17 K) was 0.12 ± 0.0039 W/m/K and the thermal conductivity (351.33 K) was 0.1166 ± 0.0038 W/m/K. The thermal conductivity (351.55 K) was 0.12 ± 0.0039 W/m/K and the thermal conductivity (352.25 K) was 0.1179 ± 0.0038 W/m/K.
With `O` [water] the thermal conductivity (276.41 K) was 0.5538 ± 0.018 W/m/K, the thermal conductivity (300.61 K) was 0.6257 ± 0.02 W/m/K and the thermal conductivity (303.32 K) was 0.6103 ± 0.02 W/m/K. The thermal conductivity (306.14 K) was 0.6095 ± 0.02 W/m/K, the thermal conductivity (325.57 K) was 0.6581 ± 0.021 W/m/K and the thermal conductivity (329.48 K) was 0.6422 ± 0.021 W/m/K. It also gave a thermal conductivity (333.39 K) of 0.6498 ± 0.021 W/m/K, a thermal conductivity (350.97 K) of 0.6877 ± 0.022 W/m/K and a thermal conductivity (355.05 K) of 0.672 ± 0.022 W/m/K. The thermal conductivity (356 K) was 0.6781 ± 0.022 W/m/K, the thermal conductivity (356.22 K) was 0.6716 ± 0.022 W/m/K and the thermal conductivity (356.54 K) was 0.6823 ± 0.022 W/m/K. For the same compound, the thermal conductivity (356.76 K) was 0.6589 ± 0.021 W/m/K, the thermal conductivity (356.9 K) was 0.6827 ± 0.022 W/m/K and the thermal conductivity (360.47 K) was 0.6765 ± 0.022 W/m/K. It also gave a thermal conductivity (361.52 K) of 0.6756 ± 0.022 W/m/K.
